Laboratory results: patent publication US20220040179A1, “USE OF CDK8/19 INHIBITORS FOR TREATMENT OF ESTABLISHED COLON CANCER HEPATIC METASTASIS” (University of South Carolina, priority 2017, published 2022)

Legend:
CT26 cells [1] = experiment: splenic injection model, CT26 cells: spleen (primary tumor) and liver (metastatic tumor) weights; type: in vivo, mouse; settings: 40 mg/kg daily i.p., 16 days, BALB/c mice
Description: To compare the effects of CDK8/19 inhibition on primary and metastatic tumor growth, we used a splenic injection model (Lafreniere and Rosenberg, 1986; Zhang et al., 2009), where tumor cells are injected in the spleen, from where they metastasize into the liver. In the study shown in FIG. 4, 2×10^5 CT26 cells were injected into the spleens of 8 weeks old female BALB/c mice, and mice were treated by daily i.p. injection of Senexin B dichloride (40 mg/kg) in 10 mM citrate buffer, pH6, 150 mM NaCl or with vehicle control (n=9). 1 6 days later, mice were sacrificed and the weights of tumor-containing spleens (primary tumor) and livers (metastatic tumor) were measured.
Mice were sacrificed 16 days after tumor cell inoculation into the spleen and spleens and livers were weighed.

[2] = toxicity and body weight in mice receiving Senexin B diet; type: in vivo; settings: Senexin B diet relative to control diet
Description: (§1) We have analyzed the survival of mice after splenic injection of 2×10^5 CT26 cells into 8 week old female BALB/c mice, followed by removal of the spleen 1 minute after injection. Mice were sacrificed when paralysis, lack of movement or paleness (due to abdominal hemorrhage) occurred. […] To establish serum drug concentrations associated with therapeutic efficacy in this model, we conducted a similar survival study where Senexin B dimaleate was administered by mixing the drug into mouse food, which provides for sustained drug delivery over time. Senexin B was mixed into food at two concentrations differing approximately 4-fold and designated low-dose and high-dose. Serum samples were collected from treated mice and Senexin B in the serum was measured by a LC/MS/MS assay.

CT26 cells [3] = experiment: splenic injection model, CT26 cells: timing of drug administration, liver weights two weeks after inoculation; type: in vivo, mouse; settings: 50 mg/kg gavage b.i.d.
Description: To determine if the anti-metastatic effects of CDK8/19 inhibition observed in the splenic injection model were due to the prevention of the initial establishment of hepatic metastases or growth inhibition of already-established metastases, we asked whether Senexin B can inhibit metastatic growth in the liver when the drug is administered after the metastases have been established. […] We compared the effects of Senexin B dimaleate on hepatic metastasis, when the drug was administered by gavage at 50 mg/kg doses in CD vehicle, b.i.d. two days prior to splenic inoculation, during the first week after inoculation, during the second week after inoculation, or over the entire two-week period following splenic inoculation of CT26 cells.

[4] = test system: human HCTl 16 colon cancer cells; experiment: splenic injection model, human HCT116 cells in athymic nude mice: liver weights; type: in vivo; settings: 50 mg/kg by gavage b.i.d. in CD vehicle, 7 weeks after inoculation
Description: The splenic injection model was used to test the effect of Senexin B on hepatic metastasis of human HCTl 16 colon cancer cells, which are […] to small-molecule CDK8/19 inhibitors (Koehler et al., 2016; Pelish et al., 2015; Porter et al., 2012). 1×10^6 HCTl 16 cells were injected into the spleens of athymic nude (nu/nu) mice (JAX #002019) mice (female, 8 weeks old), and spleens were removed 1 min later. Mice were treated with Senexin B dimaleate (50 mg/kg by gavage in CD vehicle, b.i.d.) or vehicle control (n=10). 7 weeks after tumor cell inoculation, mice were sacrificed and livers with tumor metastases (FIG. 8A) were collected.

CT26 cells [5] = experiment: survival of mice after splenic injection of CT26 cells followed by removal of the spleen; type: in vivo, mouse
Description: as §1

CT26 tumors = experiment: primary CT26 tumors implanted subcutaneously in BALB/c mice; type: in vivo, mouse; settings: unmodified CT26 cells, female BALB/c mice; 50 mg/kg by gavage b.i.d. in CD vehicle vs vehicle
Description: We further investigated the effects of CDK8/19 inhibition or knockdown on the growth of primary CT26 tumors implanted subcutaneously (s.c.), at I xl 0^6 cells, in 8 weeks-old female BALB/c mice (n=I0). FIG. 3A compares the dynamics of tumor growth and final tumor weights for CT26 cells transduced with insert-free pLK0.1 (vector control) or shCDK8-1. […] FIG. 3B compares s.c. tumor growth of unmodified CT26 cells in mice treated with Senexin B dimaleate, administered by gavage at 50 mg/kg doses (weight doses calculated for Senexin B dimaleate rather than free Senexin B) in 6.25% 2-Hydroxypropyl-cyclodextrin, I % Dextrose buffer (CD vehicle), b.i.d. or with the vehicle control.

[6] = Senexin B serum concentration by LC/MS/MS in mice on medicated diet; type: in vivo, mouse
Description: as §1

CT26 colon cancer cells = experiment: in vitro growth of CT26 cells; type: cell-based, murine; settings: 1 uM, 5-day assay
Text: To investigate the role of CDK8/19 in colon cancer growth and metastasis, we used murine CT26 colon cancer cell line, derived from a BALB/c mouse following chemical carcinogenesis (Griswold and Corbett, 1975). Cells were propagated in RPMI1640 medium with 10% Fetal Bovine Serum.

CN1CCN(C(=O)c2ccc3cc(CCNc4ncnc5ccc(C#N)cc45)ccc3c2)CC1.Cl.Cl [Senexin B dichloride]
metastatic tumor growth in the liver (liver weight, tumor area) (CT26 cells [1]): strongly inhibited metastatic tumor growth in the liver | primary tumor growth in the spleen (spleen weight) (CT26 cells [1]): no effect on the primary tumor growth in the spleen

CN1CCN(C(=O)c2ccc3cc(CCNc4ncnc5ccc(C#N)cc45)ccc3c2)CC1.O=C(O)/C=C\C(=O)O.O=C(O)/C=C\C(=O)O [Senexin B dimaleate]
toxicity [2]: no apparent toxicity | mouse body weight ([2]; days 8 and 15 after surgery): no significant change in mouse body weight | liver metastasis (liver weight) (CT26 cells [3]; administered two days prior to splenic inoculation): no effect on liver metastasis | metastatic growth in the liver (liver weight) (CT26 cells [3]; both weeks after inoculation): equally efficient in suppressing metastatic growth in the liver | liver metastasis (liver weight) (CT26 cells [3]; during the first week after inoculation): decreased the liver weights but this effect did not reach statistical significance | metastatic growth in the liver (liver weight) (CT26 cells [3]; only the second week after inoculation): equally efficient in suppressing metastatic growth in the liver | hepatic tumor growth (liver weights) [4]: strong inhibition of hepatic tumor growth | survival (Kaplan-Meyer) (CT26 cells [5]; combination: mice inoculated with shCDK8-1 cells and treated with Senexin B, 50 mg/kg gavage b.i.d.): increased the survival time even further | survival (Kaplan-Meyer), efficiency of diet (CT26 cells [5]; low-dose diet (drug mixed into food) compared with high-dose diet): at least as efficient as the high-dose diet | survival (Kaplan-Meyer) (CT26 cells [5]; mice inoculated with vector control cells, 50 mg/kg gavage b.i.d. in CD vehicle): prolonged the survival | s.c. tumor growth (CT26 tumors): not statistically significant | average serum concentration ([6]; high-dose diet): 206 nM | average serum concentration ([6]; low-dose diet): 58 nM

CN1CCN(C(=O)c2ccc3cc(CCNc4ncnc5ccc(C#N)cc45)ccc3c2)CC1 [Senexin B]
in vitro growth inhibition of CT26 cells (CT26 colon cancer cells): no significant growth inhibition
